According to ChEMBL document CHEMBL5104170, “Discovery of vimseltinib (DCC-3014), a highly selective CSF1R switch-control kinase inhibitor, in clinical development for the treatment of Tenosynovial Giant Cell Tumor (TGCT)” (Bioorg Med Chem Lett, 2022):
Values after ≈ are worked out from the molar mass of the structure shown. Values belong to the compound of their own block, whether it stands above or below them.

Legend:
NFS-60 = assay: cells; details: Mus musculus, NFS-60, 72 h
Description: Antiproliferative activity against CSF1-treated mouse NFS-60 cells measured after 72 hrs by resazurin method

[1] = Inhibition of His-Glu tagged recombinant human KIT Q694-T753 deletion mutant (565 to 935 residues) measured by spectrophotometric analysis
[2] = Plasma concentration in DBA/1 mouse at 7.5 mg/kg, po administered once daily for 6 days and measured at 24 hrs; format: ADME, organism-based; details: time 6 day
cells [3] = details: Homo sapiens, Osteoclast
Description: Inhibition of RANKL-induced human osteoclast precursor cells differentiation in presence of human CSF1 and measured by tartrate-resistant acid phosphatase activity assay

[4] = In vivo inhibition of CSF1R in CSF1-stimulated DBA/1 mouse assessed as modulation of cFOS mRNA at 7.5 mg/kg, po administered once daily for 6 days followed by CSF1 administration through intravenously and measured at 8 hrs by RT-PCR method; format: functional; details: DBA/1, 144 h, time 6 day
[5] = Plasma concentration in DBA/1 mouse at 7.5 mg/kg, po administered once daily for 6 days and measured at 2 hrs; format: ADME, organism-based; details: time 6 day
[6] = In vivo inhibition of CSF1R in CSF1-stimulated DBA/1 mouse assessed as modulation of cFOS mRNA at 7.5 mg/kg, po administered once daily for 6 days followed by CSF1 administration through intravenously and measured at 12 hrs by RT-PCR method; format: functional; details: DBA/1, 144 h, time 6 day
[7] = In vivo inhibition of CSF1R in CSF1-stimulated DBA/1 mouse assessed as modulation of cFOS mRNA at 7.5 mg/kg, po administered once daily for 6 days followed by CSF1 administration through intravenously and measured at 4 hrs by RT-PCR method; format: functional; details: DBA/1, 144 h, time 6 day
[8] = Plasma concentration in DBA/1 mouse at 7.5 mg/kg, po administered once daily for 6 days and measured at 8 hrs; format: ADME, organism-based; details: time 6 day
[9] = In vivo inhibition of CSF1R in CSF1-stimulated DBA/1 mouse assessed as modulation of cFOS mRNA at 7.5 mg/kg, po administered once daily for 6 days followed by CSF1 administration through intravenously and measured at 6 hrs by RT-PCR method; format: functional; details: DBA/1, 144 h, time 6 day
[10] = Plasma concentration in DBA/1 mouse at 7.5 mg/kg, po administered once daily for 6 days and measured at 18 hrs; format: ADME, organism-based; details: time 6 day
[11] = In vivo inhibition of CSF1R in CSF1-stimulated DBA/1 mouse assessed as modulation of cFOS mRNA at 7.5 mg/kg, po administered once daily for 6 days followed by CSF1 administration through intravenously and measured at 18 hrs by RT-PCR method; format: functional; details: DBA/1, 144 h, time 6 day
[12] = Plasma concentration in DBA/1 mouse at 7.5 mg/kg, po administered once daily for 6 days and measured at 12 hrs; format: ADME, organism-based; details: time 6 day
[13] = Plasma concentration in DBA/1 mouse at 7.5 mg/kg, po administered once daily for 6 days and measured at 6 hrs; format: ADME, organism-based; details: time 6 day
[14] = In vivo inhibition of CSF1R in CSF1-stimulated DBA/1 mouse assessed as modulation of cFOS mRNA at 7.5 mg/kg, po administered once daily for 6 days followed by CSF1 administration through intravenously and measured at 2 hrs by RT-PCR method; format: functional; details: DBA/1, 144 h, time 6 day
[15] = In vivo inhibition of CSF1R in CSF1-stimulated DBA/1 mouse assessed as modulation of cFOS mRNA at 7.5 mg/kg, po administered once daily for 6 days followed by CSF1 administration through intravenously and measured at 24 hrs by RT-PCR method; format: functional; details: DBA/1, 144 h, time 6 day
[16] = Plasma concentration in DBA/1 mouse at 7.5 mg/kg, po administered once daily for 6 days and measured at 4 hrs; format: ADME, organism-based; details: time 6 day
[17] = Clearance in dog at 10 mg/kg, po; format: ADME, organism-based, Canis lupus familiaris; details: in vivo
[18] = Clearance in rat at 10 mg/kg, po; format: ADME, organism-based; details: in vivo
[19] = Plasma protein binding in dog; format: ADME, cell-free, Canis lupus familiaris; details: read-out: PPB (converted)
cells [20] = details: Homo sapiens
Description: Inhibition of ABL (unknown origin) in presence of 4 mM ATP measured by cell-based spectrophotometric assay

hERG (KCNH2) = hERG (KCNH2) (Homo sapiens, UniProt Q12809); assay: Inhibition of hERG measured by fluorescence polarization assay; format: toxicity
Chain of hERG (KCNH2) (Q12809 whole entry): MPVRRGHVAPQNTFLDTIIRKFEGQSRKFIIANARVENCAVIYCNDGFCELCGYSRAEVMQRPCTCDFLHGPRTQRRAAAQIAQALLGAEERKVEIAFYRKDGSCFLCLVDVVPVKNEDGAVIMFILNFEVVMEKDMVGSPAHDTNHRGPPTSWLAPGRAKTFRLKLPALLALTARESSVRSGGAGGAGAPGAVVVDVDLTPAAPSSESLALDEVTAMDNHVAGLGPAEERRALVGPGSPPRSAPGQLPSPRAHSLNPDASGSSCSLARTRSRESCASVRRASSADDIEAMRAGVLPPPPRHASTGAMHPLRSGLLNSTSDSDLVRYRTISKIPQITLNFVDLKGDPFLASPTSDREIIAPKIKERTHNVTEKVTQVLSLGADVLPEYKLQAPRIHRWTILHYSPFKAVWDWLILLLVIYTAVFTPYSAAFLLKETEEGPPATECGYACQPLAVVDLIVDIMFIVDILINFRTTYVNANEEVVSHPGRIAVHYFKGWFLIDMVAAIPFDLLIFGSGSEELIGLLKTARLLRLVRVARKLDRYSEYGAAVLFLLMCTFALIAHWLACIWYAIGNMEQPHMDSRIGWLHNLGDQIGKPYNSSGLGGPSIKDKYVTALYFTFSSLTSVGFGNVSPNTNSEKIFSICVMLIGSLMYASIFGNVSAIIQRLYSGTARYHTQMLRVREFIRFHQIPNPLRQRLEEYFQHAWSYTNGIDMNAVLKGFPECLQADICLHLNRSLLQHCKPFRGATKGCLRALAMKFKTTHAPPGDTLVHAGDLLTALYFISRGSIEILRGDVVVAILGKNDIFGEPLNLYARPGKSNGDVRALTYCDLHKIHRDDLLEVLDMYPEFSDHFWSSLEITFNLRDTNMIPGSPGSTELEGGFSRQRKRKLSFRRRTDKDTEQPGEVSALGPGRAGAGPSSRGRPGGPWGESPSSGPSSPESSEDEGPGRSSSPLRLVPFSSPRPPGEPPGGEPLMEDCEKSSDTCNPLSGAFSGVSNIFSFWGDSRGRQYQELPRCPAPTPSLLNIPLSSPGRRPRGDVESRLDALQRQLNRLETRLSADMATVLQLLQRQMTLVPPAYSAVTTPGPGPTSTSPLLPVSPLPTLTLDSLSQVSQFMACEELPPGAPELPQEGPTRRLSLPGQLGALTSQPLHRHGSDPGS

[21] = Tmax in rat at 10 mg/kg, po; format: ADME, organism-based; details: in vivo
[22] = Aqueous solubility of compound at pH 7.4; format: physicochemical
[23] = target: Mast/stem cell growth factor receptor Kit (Homo sapiens, UniProt P10721); assay: Inhibition of KIT (unknown origin) in presence of 4 mM ATP measured by cell-based spectrophotometric assay
Chain of Mast/stem cell growth factor receptor Kit (P10721 whole entry): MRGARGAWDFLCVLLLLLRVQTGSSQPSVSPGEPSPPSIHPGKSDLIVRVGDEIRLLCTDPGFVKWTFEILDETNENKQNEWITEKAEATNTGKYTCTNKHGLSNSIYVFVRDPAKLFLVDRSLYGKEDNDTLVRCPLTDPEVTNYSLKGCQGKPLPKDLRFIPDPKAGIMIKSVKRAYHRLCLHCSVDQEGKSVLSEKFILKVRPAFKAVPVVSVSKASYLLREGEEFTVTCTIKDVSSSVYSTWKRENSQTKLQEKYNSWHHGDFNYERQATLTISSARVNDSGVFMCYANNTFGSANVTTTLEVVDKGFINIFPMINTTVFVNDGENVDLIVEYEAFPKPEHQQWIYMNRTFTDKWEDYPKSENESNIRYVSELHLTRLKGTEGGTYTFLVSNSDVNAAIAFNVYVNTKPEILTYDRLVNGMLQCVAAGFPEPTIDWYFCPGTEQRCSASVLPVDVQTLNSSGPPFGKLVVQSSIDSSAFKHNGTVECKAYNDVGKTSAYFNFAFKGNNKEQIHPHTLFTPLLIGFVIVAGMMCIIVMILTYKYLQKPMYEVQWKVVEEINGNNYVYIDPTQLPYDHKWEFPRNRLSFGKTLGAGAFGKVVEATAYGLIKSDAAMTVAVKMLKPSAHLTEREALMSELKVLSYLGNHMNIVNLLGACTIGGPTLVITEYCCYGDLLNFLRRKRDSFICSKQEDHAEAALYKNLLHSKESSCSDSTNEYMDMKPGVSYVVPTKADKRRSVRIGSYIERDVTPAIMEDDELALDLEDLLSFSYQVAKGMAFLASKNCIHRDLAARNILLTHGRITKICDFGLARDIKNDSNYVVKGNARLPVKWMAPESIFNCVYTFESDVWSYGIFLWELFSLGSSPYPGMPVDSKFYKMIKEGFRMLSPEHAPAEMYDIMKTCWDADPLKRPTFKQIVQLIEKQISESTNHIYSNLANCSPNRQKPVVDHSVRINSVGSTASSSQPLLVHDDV

[24] = Volume of distribution in dog at 10 mg/kg, po; format: ADME, organism-based, Canis lupus familiaris; details: in vivo
[25] = Cmax in dog at 10 mg/kg, po; format: ADME, organism-based, Canis lupus familiaris; design: dose 10 mg/kg, route po; details: in vivo
[26] = Plasma protein binding in rat; format: ADME, cell-free; details: read-out: PPB (converted)
[27] = Half-life in rat at 10 mg/kg, po; format: ADME, organism-based; details: in vivo
[28] = Metabolic stability in mouse liver microsomes assessed as compound remaining at 60 mins; format: ADME, Microsome; details: read-out: Stability
[29] = Tmax in dog at 10 mg/kg, po; format: ADME, organism-based, Canis lupus familiaris; details: in vivo
[30] = Permeability across apical to basolateral side in human Caco-2 cells; format: ADME, cell-based; details: read-out: permeability
[31] = Plasma protein binding in mouse; format: ADME, cell-free; details: read-out: PPB (converted)
[32] = Metabolic stability in rat liver microsomes assessed as compound remaining at 60 mins; format: ADME, Microsome; details: read-out: Stability
[33] = Half-life in dog at 10 mg/kg, po; format: ADME, organism-based, Canis lupus familiaris; details: in vivo
[34] = Oral bioavailability in rat at 10 mg/kg; format: ADME, organism-based; details: in vivo
[35] = Metabolic stability in dog liver microsomes assessed as compound remaining at 60 mins; format: ADME, Canis lupus familiaris, Microsome; details: read-out: Stability
[36] = Cmax in rat at 10 mg/kg, po; format: ADME, organism-based; design: dose 10 mg/kg, route po; details: in vivo
[37] = Metabolic stability in human liver microsomes assessed as compound remaining at 60 mins; format: ADME, Microsome; details: read-out: Stability
[38] = Oral bioavailability in dog at 10 mg/kg; format: ADME, organism-based, Canis lupus familiaris; details: in vivo
[39] = Volume of distribution in rat at 10 mg/kg, po; format: ADME, organism-based; details: in vivo
[40] = Plasma protein binding in human; format: ADME, cell-free; details: read-out: PPB (converted)
[41] = AUC (0 to 24 hrs) in dog at 10 mg/kg, po; format: ADME, organism-based, Canis lupus familiaris; design: time < 24 hr, dose 10 mg/kg, route po; details: in vivo
[42] = AUC (0 to 24 hrs) in rat at 10 mg/kg, po; format: ADME, organism-based; design: time < 24 hr, dose 10 mg/kg, route po; details: in vivo

Structure (SMILES): Cc1nc(-c2cnc(N3CCCCC3)[nH]c2=O)ccc1Oc1ccnc(-c2cnn(C)c2)c1
IC50 (NFS-60): 30 nM | IC50 [1]: > 3300 nM

Structure (SMILES): Cc1nc(-c2cnc(NC(C)C)[nH]c2=O)ccc1Oc1ccnc(-c2cnn(C)c2)c1
concentration at 144 h [2]: 17 ng/mL | IC50 (cells [3]): 13 nM | inhibition in vivo at 7.5 mg/kg [4]: 47% | concentration at 144 h [5]: 696 ng/mL | inhibition in vivo at 7.5 mg/kg [6]: 14% | IC50 (NFS-60): 3.1 nM | inhibition in vivo at 7.5 mg/kg [7]: 55% | concentration at 144 h [8]: 360 ng/mL | inhibition in vivo at 7.5 mg/kg [9]: 22% | IC50 [1]: 322 nM | concentration at 144 h [10]: 21 ng/mL | inhibition in vivo at 7.5 mg/kg [11]: 11% | concentration at 144 h [12]: 20 ng/mL | concentration at 144 h [13]: 451 ng/mL | inhibition in vivo at 7.5 mg/kg [14]: 36% | inhibition in vivo at 7.5 mg/kg [15]: 16% | concentration at 144 h [16]: 563 ng/mL

Structure (SMILES): CCNc1ncc(-c2ccc(Oc3ccnc(-c4cnn(C)c4)c3)cn2)c(=O)[nH]1
IC50 (NFS-60): 97 nM | IC50 [1]: 142 nM

Structure (SMILES): CNC(=O)c1cc(Oc2ccc(-c3cnc(NC(C)C)[nH]c3=O)nc2)ccn1
IC50 (NFS-60): 127 nM | IC50 [1]: 7400 nM

Structure (SMILES): CCNc1ncc(-c2ccc(Oc3ccnc(-c4cnn(C)c4)c3)c(C)n2)c(=O)[nH]1
IC50 (cells [3]): 18 nM | IC50 (NFS-60): 45 nM | IC50 [1]: 2100 nM

Structure (SMILES): CC(=O)Nc1cc(Oc2ccc(-c3cnc(NC(C)C)[nH]c3=O)nc2C)ccn1
IC50 (NFS-60): 193 nM | IC50 [1]: 277 nM

Structure (SMILES): FC(F)(F)c1ccc(CNc2ccc(Cc3c[nH]c4ncc(Cl)cc34)cn2)cn1 [PEXIDARTINIB]
IC50 (NFS-60): 33 nM

Structure (SMILES): Cc1nc(-c2cnc(NC(C)C)n(C)c2=O)ccc1Oc1ccnc(-c2cnn(C)c2)c1 [VIMSELTINIB]
CL [17]: 2.5 mL/min/kg | concentration at 144 h [2]: 1380 ng/mL | CL [18]: 0.5 mL/min/kg | fraction unbound [19]: 0.033 | IC50 (cells [20]): 2900 nM | IC20 (hERG (KCNH2)): 20000 nM | IC50 (cells [3]): 9.3 nM | inhibition in vivo at 7.5 mg/kg [4]: 92% | Tmax [21]: 2.67 h | solubility [22]: 200 µM (≈ 86.3 µg/mL) | concentration at 144 h [5]: 4450 ng/mL | IC50 [23]: 1600 nM | inhibition in vivo at 7.5 mg/kg [6]: 90% | Vd [24]: 1.33 L/kg | Cmax [25]: 1010 nM | IC50 (NFS-60): 18 nM | fraction unbound [26]: 0.006 | t1/2 [27]: 19.8 h | inhibition in vivo at 7.5 mg/kg [7]: 93% | concentration at 144 h [8]: 3030 ng/mL | remaining at 1 h [28]: 94.8% | inhibition in vivo at 7.5 mg/kg [9]: 88% | Tmax [29]: 1.67 h | IC50 [1]: 476 nM | concentration at 144 h [10]: 1310 ng/mL | Papp A→B [30]: 16 ×10⁻⁶ cm/s | inhibition in vivo at 7.5 mg/kg [11]: 89% | fraction unbound [31]: 0.026 | remaining at 1 h [32]: 95.2% | concentration at 144 h [12]: 1970 ng/mL | half-life [33]: 10.6 h | concentration at 144 h [13]: 2360 ng/mL | bioavailability [34]: 76% | inhibition in vivo at 7.5 mg/kg [14]: 84% | inhibition in vivo at 7.5 mg/kg [15]: 79% | remaining at 1 h [35]: 95.2% | Cmax [36]: 3740 nM | concentration at 144 h [16]: 4260 ng/mL | remaining at 1 h [37]: 100% | bioavailability [38]: 33% | Vd [39]: 0.69 L/kg | fraction unbound [40]: 0.033 | AUC [41]: 5.432 µM·h | AUC [42]: 38.009 µM·h

More lines, now with the values ahead:

IC50 (NFS-60): 413 nM | IC50 [1]: 3200 nM
Structure (SMILES): Cc1nc(-c2cnc(NC3CCOCC3)[nH]c2=O)ccc1Oc1ccnc(-c2cnn(C)c2)c1

IC50 (NFS-60): 2.6 nM | IC50 [1]: 990 nM
Structure (SMILES): Cc1nc(-c2cnc(NC3CCCC3)[nH]c2=O)ccc1Oc1ccnc(-c2cnn(C)c2)c1

IC50 (cells [3]): 16 nM | IC50 (NFS-60): 55 nM | IC50 [1]: > 3300 nM
Structure (SMILES): Cc1nc(-c2cnc(NC3CC3)[nH]c2=O)ccc1Oc1ccnc(-c2cnn(C)c2)c1
